Patent US20240277642A1, “POLYMERIZED VALPROIC ACID AND USE THEREOF” (UNIVERSITY OF TSUKUBA, priority 2021, published 2024)

Test: toxicity evaluation by changes in body weight
Type: in vivo, mice
Conditions: intraperitoneal, 500 mg/kg for 5 days; FIG. 6
Protocol: To evaluate the toxicity of VPA and Nano^VPA, VPA and Nano^VPA were intraperitoneally administered at a dose of 500 mg/kg for 5 days, and changes in body weight of the mice were observed.

## CCCC(CCC)C(=O)O [VPA, valproic acid]
  changes in body weight: a decrease in body weight
